Assay: solvent given as SMILES

COc1cnc(-c2cc[n+](C3=C(F)C(F)(F)C(F)(F)[C-]3F)cc2)s1
absorption maximum (in CC#N): 407 nm
absorption maximum (in CC(C)=O): 408 nm
absorption maximum (in CCO): 409 nm
absorption maximum (in CN(C)C=O): 410 nm
absorption maximum (in CO): 407 nm
absorption maximum (in CS(C)=O): 410 nm
absorption maximum (in ClC(Cl)Cl): 433 nm
absorption maximum (in ClCCl): 430 nm

CCCCC1(CCCC)c2ccccc2-c2ccc(-c3c4c(nc5ccccc35)-c3cc5c(cc3CC4)-c3nc4ccccc4c(-c4ccc6c(c4)C(CCCC)(CCCC)c4ccccc4-6)c3CC5)cc21
absorption maximum (in ClC(Cl)Cl): 377 nm

CC1(C)c2ccccc2N(c2ccc3nc4c5ccc(N6c7ccccc7C(C)(C)c7ccccc76)cc5c5cc(N6c7ccccc7C(C)(C)c7ccccc76)ccc5c4nc3c2)c2ccccc21
absorption maximum (in Cc1ccccc1): 456 nm

Cc1c(C(=O)c2c(F)cc(F)cc2F)c2ccc3cccc4c5cccc6ccc1c(c65)c2c34
absorption maximum (in ClCCl): 390 nm

C(#Cc1cccs1)C(C#Cc1cccs1)=Cc1ccc(C=C(C#Cc2cccs2)C#Cc2cccs2)cc1
absorption maximum (in ClC(Cl)Cl): 438 nm

CC(C)[Si](C#Cc1c2ccccc2c(C#Cc2c3ccccc3c(C#Cc3c4ccccc4c(C#Cc4c5ccccc5c(C#C[Si](C(C)C)(C(C)C)C(C)C)c5ccccc45)c4ccccc34)c3ccccc23)c2ccccc12)(C(C)C)C(C)C
absorption maximum (in Cc1ccccc1): 582 nm

COc1ccc(C2=C(c3ccc(OC)cc3)c3cccc4c3c(cc3nc5ccccc5nc34)O2)cc1
absorption maximum (in ClCCl): 500 nm

CCCCCCn1c2ccccc2c2cc(/C=C/c3cc(=O)oc4cc(C)ccc34)ccc21
absorption maximum (in CS(C)=O): 405 nm
absorption maximum (in ClC(Cl)Cl): 393 nm

COC(=O)c1c(C(=O)OC)c2ccc(C)nn2c1C
absorption maximum (in C1CCCCC1): 380.4 nm

Cc1cccc2c3ccccc3n(-c3ccc(-c4c(-c5ccccc5)c(C#N)c(C#N)c(-c5ccccc5)c4-c4ccc(-n5c6ccccc6c6cccc(C)c65)cc4)cc3)c12
absorption maximum (in Cc1ccccc1): 339 nm

CCCCCCCCOc1ccc2c3c(c4ccc(OCCCCCCCC)cc4c2c1)C(C)(C)c1ccccc1-3
absorption maximum (in C1CCCCC1): 388 nm

CCCCN1/C(=C/C=C/C2=[N+](C)c3ccccc3C2(C)C)Oc2ccccc21
absorption maximum (in CS(C)=O): 516 nm

CC(C)CCC[C@@H](C)[C@H]1CC[C@H]2[C@@H]3CC=C4C[C@@H](OC(=O)Oc5cc(/C=C/C=C/c6ccc(N(C)C)cc6)ccc5[N+](=O)[O-])CC[C@]4(C)[C@H]3CC[C@]12C
absorption maximum (in CO): 448 nm

N#Cc1c(-n2nnc3c2-c2ccccc2CN(C(=O)CCN)c2ccccc2-3)n([C@H]2C[C@H](O)[C@@H](CO)O2)c2ncnc(N)c12
absorption maximum (in CO): 290 nm

CCCC1(CCC)c2cc(C#N)ccc2-c2ccc(C#N)cc21
absorption maximum (in C1CCCCC1): 319 nm

F[B-]1(F)n2c(c3cccc4cccc2c43)=Nc2cccc(Cl)[n+]21
absorption maximum (in C1CCOC1): 476 nm
absorption maximum (in CC#N): 470 nm
absorption maximum (in CCCCCC): 481 nm
absorption maximum (in Cc1ccccc1): 481 nm
absorption maximum (in ClCCl): 447 nm

COc1ccc2cc(C3=[N+]4C(=Nc5c(-c6ccccc6)cc(-c6ccc7cc(OC)ccc7c6)n5[B-]4(F)F)C(c4ccccc4)=C3)ccc2c1
absorption maximum (in ClC(Cl)Cl): 706 nm
absorption maximum (in ClCCl): 706 nm

COc1ccccc1C1=[N+]2C(=Nc3c(-c4ccccc4)cc(-c4ccccc4OC)n3[B-]2(F)F)C(c2ccccc2)=C1
absorption maximum (in Cc1ccccc1): 640 nm

CC1=CC(C)=[N+]2C1=C(c1c3ccccc3c(C)c3ccccc13)c1c(C)cc(C)n1[B-]2(F)F
absorption maximum (in CC#N): 503 nm
absorption maximum (in CCCCCC): 505 nm
absorption maximum (in CCO): 504 nm
absorption maximum (in CN(C)C=O): 506 nm
absorption maximum (in Cc1ccccc1): 509 nm
absorption maximum (in ClCCl): 506 nm

COc1ccc(C(=O)COc2c(C)c(=O)n3c(=O)c(C)c(COC(=O)c4ccccc4Cl)n23)cc1
absorption maximum (in CCO): 382 nm

CC1=CC(C)=[N+]2C1=C(c1ccc(I)cc1)c1c(C)cc(C)n1[B-]2(OC(C)C)OC(C)C
absorption maximum (in ClC(Cl)Cl): 504 nm

O=S(=O)(c1ccc(-c2ccc(-c3nc4c5ccccc5c5ccccc5c4n3-c3ccccc3)cc2)cc1)c1ccc(-c2ccc(-c3nc4c5ccccc5c5ccccc5c4n3-c3ccccc3)cc2)cc1
absorption maximum (in C1CCOC1): 368 nm
absorption maximum (in CC#N): 368 nm
absorption maximum (in CC(C)=O): 368 nm
absorption maximum (in CC(C)OC(C)C): 368 nm
absorption maximum (in CCCCCC): 368 nm
absorption maximum (in CCCCOCCCC): 368 nm
absorption maximum (in CCN(CC)CC): 368 nm
absorption maximum (in CCOC(C)=O): 368 nm
absorption maximum (in CCOCC): 368 nm
absorption maximum (in CN(C)C=O): 368 nm
absorption maximum (in ClC(Cl)Cl): 368 nm
absorption maximum (in ClCCl): 368 nm

Cc1nc2cc3c4c(cccc4c2o1)C(=O)OC3=O
absorption maximum (in CCO): 362 nm

C(=C\c1cccc2ccccc12)/c1ncc(-c2ccccc2)o1
absorption maximum (in ClCCl): 357 nm

C[Si](C)(C)c1cccc2c(C#N)cccc12
absorption maximum (in C1CCCCC1): 311 nm

C(#Cc1ccncc1)C(C#Cc1ccncc1)=Cc1ccc(C=C(C#Cc2ccncc2)C#Cc2ccncc2)s1
absorption maximum (in ClC(Cl)Cl): 522 nm

CCC[Si](CCC)(CCC)c1cc2ccc3cccc4ccc(c1C(=O)NC(C)(C)C)c2c34
absorption maximum (in ClC(Cl)Cl): 382 nm

Cc1ccc2nnn(-c3c(C#N)c4c(N)ncnc4n3[C@H]3C[C@H](O)[C@@H](CO)O3)c2c1
absorption maximum (in CO): 278 nm

C#CCNC1=C2C(C)=CC(C)=[N+]2[B-](F)(F)n2c(C)cc(C)c21
absorption maximum (in C1CCCCC1): 468.5 nm
absorption maximum (in CC(C)=O): 453 nm
absorption maximum (in CCOC(C)=O): 457 nm
absorption maximum (in CO): 453 nm
absorption maximum (in OCC(F)(F)F): 450.5 nm
